Experimental data from paper PMC9475553, “SHF Acts as a Novel Tumor Suppressor in Glioblastoma Multiforme by Disrupting STAT3 Dimerization” (Advanced Science, 2022).

Tests used:
GBM cells = assay: Annexin V flow cytometry apoptosis assay; format: cell-based, human; conditions: 25 uM stated adequate for subsequent experiments, n=3
Experimental: Cell apoptosis was detected by flow cytometry according to the manufacturer's instructions of the Annexin V‐FITC Apoptosis Detection Kit (KeyGen Biotech, China). Briefly, cells were incubated with Doxorubicin (DOX, 2 µM) for 48 h. Cells were harvested and rinsed with ice‐cold PBS and then resuspended in 200 µL of binding buffer. 10 mL of AV‐FITC stock solution was added to cell suspensions and incubated for 15 min at RT. Cells were further rinsed with 200 µL ice‐cold PBS and immediately analyzed by a FACScan flow cytometry.
Supplementary Fig. 9 C16 inhibits tumor growth and promotes chemosensitivity in vitro.
B. Colony formation of cells treated with SC or C16 (left) and the accompanying statistical
analysis (right; n=6, Student’s t-test, **P < 0.01).
C. Annexin V staining flow cytometry assay of cells simultaneously treated with Dox with SC or
C16 for 48 h (n=3, Student’s t-test, *P < 0.05, **P < 0.01).
(1 picture or pasted object on this page, not shown here)

STAT3 dimerization = assay: IP assay: STAT3 dimerization in 293T cells; format: cell-based, human; conditions: transfected 293T cells incubated with C16 for 2 h
Experimental: (§1) Figure 7 Peptide derived from the STAT3‐binding sites of SHF is an effective GBM suppressive strategy. A) Binding model between SHF and STAT3 using ZDOCK server. […] B) IF staining determined the cell penetrability and nuclear‐localization of C16. U251 cells were incubated with C16 or SC for 2 h and performed IF staining using the indicated antibodies. Bars, 10 µm. C) The statical analysis of adsorption equilibrium assay detecting the binding of C16 and SC with recombinant STAT3. D) Pull‐down assay indicating C16 binds STAT3. GST‐STAT3 was incubated with C16 or SC for 2 h, and the pull‐down assay was performed using Anti‐His magnetic beads. E) IP assay showing the effect of C16 on STAT3 dimerization. 293T cells transfected with indicated vectors were incubated with C16 for 2 h. The relative quantification of STAT3 dimerization was listed. F) IP assay detecting the effect of C16 on the interaction of STAT3 and DNMT1. […] The relative quantification of STAT3/DNMT1 interaction was listed. […] The relative quantification of STAT3/DNMT1 interaction was listed. […] Positive cells were quantified 20 randomly selected fields per mouse (n = 6, Student's t‐test, **p < 0.01). […]
(§2) Immunoprecipitation (IP) experiments were performed to analyze the protein interactions. […] Precipitated products were analyzed by Western blot using the specified antibodies. […]

GST-STAT3 = assay: Pull-down assay, GST-STAT3 with peptide; format: binding; conditions: GST-STAT3 incubated with C16 or SC for 2 h; Anti-His magnetic beads
Experimental: as §1, §2

STAT3/DNMT1 interaction = assay: IP assay: ectopic STAT3/DNMT1 interaction in 293T cells; format: cell-based, human; conditions: 293T cells expressing ectopic STAT3 and DNMT1, C16 for 2 h
Experimental: as §1, §2

STAT3 targeted genes = assay: qRT-PCR of STAT3 targeted genes in derived xenografts; format: in vivo, mouse; conditions: 10 µg i.p. once every 2 days, n = 6, p < 0.01
Experimental: as §1, with “293T cells transfected with indicated vectors were incubated with C16 for 2 h.” left out, “listed.” for “listed. F) IP assay detecting the effect of C16 on the interaction of STAT3 and DNMT1.”
Total RNA was extracted using TRIzol reagent (Invitrogen) according to the manufacturer's instructions. cDNA was synthesized with the M‐MLV Reverse Transcriptase Kit (Cwbio, Beijing, China). PCR analyses were conducted to quantify mRNA expression using Real SYBR Mixture (Cwbio) on a Lightcycler 480 II instrument (Roche Applied Science). […]

global DNA methylation = assay: Global DNA methylation (5-mC ELISA) assay in U87 cells; format: cell-based, human; conditions: U87 cells treated with C16; n = 3, p < 0.01
Experimental: as §1, with “293T cells transfected with indicated vectors were incubated with C16 for 2 h.” left out, “listed.” for “listed. F) IP assay detecting the effect of C16 on the interaction of STAT3 and DNMT1.”
Global DNA methylation status was quantified by the MethylFlash Global DNA Methylation (5‐mC) ELISA Easy Kit (Epigentek, Brooklyn, NY). Levels of 5‐methylcytosine (5‐mC) were calculated according to the manufacturer's instructions. In brief, the purified and quantified genomic DNA were bound to strip‐wells treated for high DNA affinity. […]

STAT3 binding in pull-down / in vitro IP (GST-STAT3): contains the STAT3 binding capacity
Substance: C16: peptide spanning SHF amino acids 388–421, palmitic acid at the N-terminus, amidated C-terminus, 3× His tags added to the C-terminal (PFSSVPEIVHHYASRKLPIKGAEHMSLLYPVAIR; palmitic acid at the N-terminus; amidated C-terminus; left off: 3× His tags, C-terminal, kept)
spontaneous apoptosis (GBM cells; C16 vs SC): without increasing spontaneous apoptosis
chemosensitivity (apoptosis with Dox) (GBM cells; simultaneous Dox with SC or C16 for 48 h): promoted chemosensitivity
inhibition of STAT3 dimerization (IP) (STAT3 dimerization): effectively inhibits STAT3 dimerization
ectopic STAT3/DNMT1 interaction (STAT3/DNMT1 interaction): decrease
STAT3 targeted gene expression in derived xenografts (STAT3 targeted genes): significantly down‐regulated
global DNA methylation (global DNA methylation): significant decrease
